# System: M. tuberculosis
# Test: microbe, parasite or virus in culture
# Type: cell-based
# Settings: Mycobacterium tuberculosis, 120 h; read-out: QUM (MIC80)
row,Structure (SMILES),MIC80 [µM]
1,CCc1nc2c(C(F)(F)F)cccn2c1C(=O)NCc1ccc(N2CCC(c3ccccc3)CC2)cc1 [Compound 112],1 to 20
2,CCc1nc2cc(Br)ccn2c1C(=O)NCc1ccc(N2CCC(c3ccccc3)CC2)cc1 [Compound 113],< 1
3,CCc1nc2ccc(F)cn2c1C(=O)NCc1ccc(N2CCC(c3ccc(C)cc3)CC2)cc1 [Compound 115],< 1
4,CCc1nc2cc(F)ccn2c1C(=O)NCc1ccc(N2CCN(c3ccc(OC(F)(F)F)cc3)CC2)cc1 [Compound 116],< 1
5,CCc1nc2c(OC)cccn2c1C(=O)NCc1ccc(N2CCC(c3ccc(OC(F)(F)F)cc3)CC2)cc1 [Compound 117],1 to 20
6,CCc1nc2ccc(OC)cn2c1C(=O)NCc1ccc(N2CCC(c3ccccc3)CC2)cc1 [Compound 118],< 1
7,CCc1nc2c(Cl)cccn2c1C(=O)NCc1ccc(N2CCC(c3ccc(C(F)(F)F)cc3)CC2)cc1 [Compound 119],< 1
8,CCc1nc2ccc(C(F)(F)F)cn2c1C(=O)NCc1ccc(N2CCC(c3ccc(OC)cc3)CC2)cc1 [Compound 120],< 1
9,CCc1nc2ccc(C(F)(F)F)cn2c1C(=O)NCc1ccc(N2CCN(c3ccc(Cl)cc3)CC2)cc1 [Compound 121],< 1
10,CCc1nc2ccc(C)cn2c1C(=O)NCc1ccc(N2CCC(c3ccc(Cl)cc3)CC2)cc1 [Compound 122],< 1
11,CCc1nc2ccc(OC)cn2c1C(=O)NCc1ccc(N2CCC(c3ccc(OC)cc3)CC2)cc1 [Compound 123],< 1
12,CCc1nc2cc(C(F)(F)F)ccn2c1C(=O)NCc1ccc(N2CCC(c3ccc(OC)cc3)CC2)cc1 [Compound 124],< 1
13,CCc1nc2c(OC)cccn2c1C(=O)NCc1ccc(N2CCC(c3ccc(C(F)(F)F)cc3)CC2)cc1 [Compound 125],1 to 20
14,CCc1nc2ccc(OC)cn2c1C(=O)NCc1ccc(N2CCC(c3ccc(C(F)(F)F)cc3)CC2)cc1 [Compound 126],< 1
15,CCc1nc2ccc(OC)cn2c1C(=O)NCc1ccc(N2CCC(c3ccc(C)cc3)CC2)cc1 [Compound 127],< 1
16,CCc1nc2ccc(OC)cn2c1C(=O)NCc1ccc(N2CCN(c3ccc(Cl)cc3)CC2)cc1 [Compound 128],< 1
17,CCc1nc2c(OC)cccn2c1C(=O)NCc1ccc(N2CCN(c3ccc(C(F)(F)F)cc3)CC2)cc1 [Compound 129],1 to 20
18,CCc1nc2ccc(C(F)(F)F)cn2c1C(=O)NCc1ccc(N2CCN(c3ccc(C(F)(F)F)cc3)CC2)cc1 [Compound 130],< 1
19,CCc1nc2cc(Br)ccn2c1C(=O)NCc1ccc(N2CCC(c3ccc(C(F)(F)F)cc3)CC2)cc1 [Compound 132],< 1
20,CCc1nc2cc(Br)ccn2c1C(=O)NCc1ccc(N2CCC(c3ccc(F)cc3)CC2)cc1 [Compound 133],< 1
21,CCc1nc2cc(Br)ccn2c1C(=O)NCc1ccc(N2CCC(c3ccc(Cl)cc3)CC2)cc1 [Compound 134],< 1
22,CCc1nc2cc(Br)ccn2c1C(=O)NCc1ccc(N2CCN(c3ccc(Cl)cc3)CC2)cc1 [Compound 135],< 1
23,CCc1nc2ccc(Br)cn2c1C(=O)NCc1ccc(N2CCC(c3ccc(C(F)(F)F)cc3)CC2)cc1 [Compound 136],< 1
24,CCc1nc2cc(F)ccn2c1C(=O)NCc1ccc(N2CCC(c3ccc(F)cc3)CC2)cc1 [Compound 137],< 1
25,CCc1nc2ccccn2c1C(=O)NCc1ccc(N2CCC(c3ccc(Cl)cc3)CC2)cc1 [Compound 139],< 1

row,Structure (SMILES),MIC80 [µM]
1,CCc1nc2ccc(C)cn2c1C(=O)NCc1ccc(N2CCC(c3ccc(C(F)(F)F)cc3)CC2)cc1 [Compound 140],< 1
2,CCc1nc2cc(C)ccn2c1C(=O)NCc1ccc(N2CCN(c3ccc(C)cc3)CC2)cc1 [Compound 141],< 1
3,CCc1nc2c(Br)cccn2c1C(=O)NCc1ccc(N2CCC(c3ccc(C(F)(F)F)cc3)CC2)cc1 [Compound 143],1 to 20
4,CCc1nc2c(C)cccn2c1C(=O)NCc1ccc(N2CCC(c3ccc(C)cc3)CC2)cc1 [Compound 144],< 1
5,CCc1nc2c(C)cccn2c1C(=O)NCc1ccc(N2CCC(c3ccc(C(F)(F)F)cc3)CC2)cc1 [Compound 145],< 1
6,CCc1nc2ccc(C(F)(F)F)cn2c1C(=O)NCc1ccc(N2CCC(c3ccc(C(F)(F)F)cc3)CC2)cc1 [Compound 146],< 1
7,CCc1nc2c(Cl)cccn2c1C(=O)NCc1ccc(N2CCC(c3ccc(C)cc3)CC2)cc1 [Compound 147],< 1
8,CCc1nc2c(F)cccn2c1C(=O)NCc1ccc(N2CCC(c3ccc(F)cc3)CC2)cc1 [Compound 148],< 1
9,CCc1nc2ccc(F)cn2c1C(=O)NCc1ccc(N2CCN(c3ccc(OC)cc3)CC2)cc1 [Compound 149],< 1
10,CCc1nc2ccc(F)cn2c1C(=O)NCc1ccc(N2CCC(c3ccc(OC)cc3)CC2)cc1 [Compound 150],< 1
11,CCc1nc2c(OC)cccn2c1C(=O)NCc1ccc(N2CCC(c3ccc(F)cc3)CC2)cc1 [Compound 151],1 to 20
12,CCc1nc2c(OC)cccn2c1C(=O)NCc1ccc(N2CCC(c3ccc(OC)cc3)CC2)cc1 [Compound 152],1 to 20
13,CCc1nc2c(C(F)(F)F)cccn2c1C(=O)NCc1ccc(N2CCC(c3ccc(OC(F)(F)F)cc3)CC2)cc1 [Compound 154],1 to 20
14,CCc1nc2cc(C)ccn2c1C(=O)NCc1ccc(N2CCC(c3ccc(OC)cc3)CC2)cc1 [Compound 155],< 1
15,CCc1nc2ccc(Br)cn2c1C(=O)NCc1ccc(N2CCN(c3ccc(C(F)(F)F)cc3)CC2)cc1 [Compound 156],< 1
16,CCc1nc2ccccn2c1C(=O)NCc1ccc(N2CCC(c3ccc(C)cc3)CC2)cc1 [Compound 157],< 1
17,CCc1nc2ccc(Cl)cn2c1C(=O)NCc1ccc(N2CCC(c3ccc(C(F)(F)F)cc3)CC2)cc1 [Compound 158],< 1
18,CCc1nc2ccc(Br)cn2c1C(=O)NCc1ccc(N2CCC(c3ccc(Cl)cc3)CC2)cc1 [Compound 159],< 1
19,CCc1nc2c(Cl)cccn2c1C(=O)NCc1ccc(N2CCN(c3ccc(C)cc3)CC2)cc1 [Compound 160],< 1
20,CCc1nc2c(F)cccn2c1C(=O)NCc1ccc(N2CCN(c3ccc(C(F)(F)F)cc3)CC2)cc1 [Compound 161],< 1
21,CCc1nc2ccc(F)cn2c1C(=O)NCc1ccc(N2CCC(c3ccc(Cl)cc3)CC2)cc1 [Compound 162],< 1
22,CCc1nc2cc(C)ccn2c1C(=O)NCc1ccc(N2CCC(c3ccc(F)cc3)CC2)cc1 [Compound 163],< 1
23,CCc1nc2cc(F)ccn2c1C(=O)NCc1ccc(N2CCC(c3ccc(C(F)(F)F)cc3)CC2)cc1 [Compound 164],< 1
24,CCc1nc2ccc(F)cn2c1C(=O)NCc1ccc(N2CCC(c3ccccc3)CC2)cc1 [Compound 165],< 1
25,CCc1nc2cc(F)ccn2c1C(=O)NCc1ccc(N2CCC(c3ccccc3)CC2)cc1 [Compound 166],< 1

row,Structure (SMILES),MIC80 [µM]
1,CCc1nc2c(F)cccn2c1C(=O)NCc1ccc(N2CCC(c3ccccc3)CC2)cc1 [Compound 167],< 1
2,CCc1nc2c(Br)cccn2c1C(=O)NCc1ccc(N2CCC(c3ccccc3)CC2)cc1 [Compound 168],1 to 20
3,CCc1nc2ccc(C(F)(F)F)cn2c1C(=O)NCc1ccc(N2CCC(c3ccc(C)cc3)CC2)cc1 [Compound 169],< 1
4,CCc1nc2ccccn2c1C(=O)NCc1ccc(N2CCC(c3ccccc3)CC2)cc1 [Compound 170],< 1
5,CCc1nc2ccc(OC)cn2c1C(=O)NCc1ccc(N2CCC(c3ccc(Cl)cc3)CC2)cc1 [Compound 172],< 1
6,CCc1nc2c(C)cccn2c1C(=O)NCc1ccc(N2CCC(c3ccc(Cl)cc3)CC2)cc1 [Compound 173],< 1
7,CCc1nc2ccc(C)cn2c1C(=O)NCc1ccc(N2CCC(c3ccc(OC(F)(F)F)cc3)CC2)cc1 [Compound 174],< 1
8,CCc1nc2c(F)cccn2c1C(=O)NCc1ccc(N2CCC(c3ccc(Cl)cc3)CC2)cc1 [Compound 176],< 1
9,CCc1nc2c(OC)cccn2c1C(=O)NCc1ccc(N2CCC(c3ccccc3)CC2)cc1 [Compound 177],< 1
10,CCc1nc2ccc(C(F)(F)F)cn2c1C(=O)NCc1ccc(N2CCC(c3ccccc3)CC2)cc1 [Compound 178],< 1
11,CCc1nc2ccc(OC)cn2c1C(=O)NCc1ccc(N2CCC(c3ccc(F)cc3)CC2)cc1 [Compound 179],< 1
12,CCc1nc2ccccn2c1C(=O)NCc1ccc(N2CCC(c3ccc(OC)cc3)CC2)cc1 [Compound 180],< 1
13,CCc1nc2c(C)cccn2c1C(=O)NCc1ccc(N2CCC(c3ccc(OC(F)(F)F)cc3)CC2)cc1 [Compound 181],< 1
14,CCc1nc2ccc(OC)cn2c1C(=O)NCc1ccc(N2CCC(c3ccc(OC(F)(F)F)cc3)CC2)cc1 [Compound 182],< 1
15,CCc1nc2c(Cl)cccn2c1C(=O)NCc1ccc(N2CCC(c3ccc(F)cc3)CC2)cc1 [Compound 183],< 1
16,CCc1nc2cc(OC)ccn2c1C(=O)NCc1ccc(N2CCC(c3ccc(OC(F)(F)F)cc3)CC2)cc1 [Compound 184],< 1
17,CCc1nc2c(Br)cccn2c1C(=O)NCc1ccc(N2CCC(c3ccc(OC(F)(F)F)cc3)CC2)cc1 [Compound 185],1 to 20
18,CCc1nc2cc(C(F)(F)F)ccn2c1C(=O)NCc1ccc(N2CCC(c3ccc(Cl)cc3)CC2)cc1 [Compound 186],< 1
19,CCc1nc2ccc(Br)cn2c1C(=O)NCc1ccc(N2CCC(c3ccc(OC(F)(F)F)cc3)CC2)cc1 [Compound 187],< 1
20,CCc1nc2ccc(C(F)(F)F)cn2c1C(=O)NCc1ccc(N2CCN(c3ccc(OC(F)(F)F)cc3)CC2)cc1 [Compound 188],< 1
21,CCc1nc2c(Br)cccn2c1C(=O)NCc1ccc(N2CCC(c3ccc(F)cc3)CC2)cc1 [Compound 189],1 to 20
22,CCc1nc2c(Cl)cccn2c1C(=O)NCc1ccc(N2CCC(c3ccccc3)CC2)cc1 [Compound 190],< 1
23,CCc1nc2cc(Br)ccn2c1C(=O)NCc1ccc(N2CCC(c3ccc(OC(F)(F)F)cc3)CC2)cc1 [Compound 191],< 1
24,CCc1nc2cc(Br)ccn2c1C(=O)NCc1ccc(N2CCN(c3ccc(OC(F)(F)F)cc3)CC2)cc1 [Compound 192],< 1
